Source: patent publication US11401271B2, “Fused heterocyclic compound, pyrazole-ring-containing fused heterocyclic compound, agricultural composition containing thereof, and method of using the composition” (SOUTH CHINA AGRICULTURAL UNIVERSITY, priority 2017, dated 2022)
Like-named read-outs stand apart in the source and are kept apart here.

Key:
Type in all cases: in vivo
Apis cernan = assay: Toxicity test on adult worker bees of Apis cernan, small beaker method; settings: 500 ppm, 48 hours
Experimental: (2) Toxicity Test on Adult Worker Bees of Apis cernan.
Adult worker bees of Apis cernan having the same size were selected for test. The worker bees were collected from beekeeping boxes in the daystart of the test day and tested by using a small beaker method.
Operation process: A small amount of absorbent cotton was put into a 5 mL small beaker, 5 mL of a test liquid medicine (a concentration of 500 ppm) was dropped into the absorbent cotton, and stirred gently to make the absorbent cotton completely wet but not leached obviously, then the small beaker was put into a 500 mL large beaker, then 15 worker bees were put into the large beaker, and finally the large beaker was sealed with gauze. After treatment, the large beaker was placed in a dark room of an artificial climate box. After taking the medicine for 48 hours, a number of live and dead worker bees were investigated.

Spodoptera exigua = assay: whole plant or invertebrate; settings: for mortality at 500 ppm: Spodoptera exigua, 24 h, read-out: Spodoptera exigua Mortality (%) 500 ppm; for Spodoptera exigua Mortality (%): 500 ppm, 2nd-instar larvae, leaf immersion feeding
How it was run: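 Cabbage leaf discs dipped 5 s in 500 ppm compound (0.05% Tween-80 aqueous), air-dried, fed to about 35 2nd-instar larvae at 28° C, three replicates. Deaths counted at 24 h; mortality corrected against Tween-80 control.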

Plutella xylostella = assay: whole plant or invertebrate; settings: for mortality at 500 ppm: Plutella xylostella, read-out: Plutella xylostella Mortality (%) 500 ppm; for Plutella xylostella Mortality (%): 500 ppm, 2nd-instar larvae, leaf immersion feeding
How it was run: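 Cabbage leaf discs dipped 5 s in compound at 500 ppm (0.05% Tween-80 aqueous), air-dried, fed to about 35 2nd-instar larvae at 28° C., triplicate. Dead larvae counted after 24 h; mortality (%) corrected against Tween-80 control.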

Solenopsis invicta = assay: whole plant or invertebrate; settings: water test tube poison-feeding; for mortality at 100 ppm: Solenopsis invicta; for Solenopsis invicta Mortality (%) 24 h / Solenopsis invicta Mortality (%) 72 h: 100 ppm
How it was run: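 Fire ants fed compound by water test-tube poison-feeding at 100 ppm in aqueous 0.05% Tween-80/5% honey (from 10 g/L DMSO stock), kept at 25 °C. Live and dead ants counted at 24 and 72 h; mortality (%) calculated relative to live ants in the untreated control.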

Aphis craccivora = assay: whole plant or invertebrate; settings: for mortality at 500 ppm: Aphis craccivora, 24 h, read-out: Aphis craccivora Mortality (%) 500 ppm; for Aphis craccivora Mortality (%): 500 ppm, wingless adults, immersion 5 seconds, counted after 24 hours
How it was run: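 Wingless adults feeding on bean sprouts were dipped with the sprouts for 5 s in 500 ppm compound in aqueous 0.05% Tween-80, air-dried, then held at 23° C. Dead aphids counted after 24 h, triplicate, with 0.05% Tween-80 as control. Mortality (%) = (control live − treated live)/control live × 100.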

Bombyx mori L. = assay: Toxicity test on 2nd-instar larvae of Bombyx mori L., leaf immersion feeding method; settings: 1000 ppm, 24 hours
Experimental: (1) Toxicity Test on 2nd-Instar Larvae of Bombyx mori L.
Bombyx mori L. is an important economic insect sensitive to pesticides in an agricultural ecosystem, and is also one of the non-target organisms of environmental ecology listed in pesticide registration of China. The 2nd-instar larvae of Bombyx mori L. were used as test objects and tested by using a leaf immersion feeding method.
Operation process: Samples were weighed accurately, and respectively added with 200 μL of dimethyl sulfoxide to prepare 10 g/L mother liquor which was diluted into a concentration of 1000 ppm with an aqueous solution containing 0.05% of Tween-80 during the test. Young cotyledons of mulberries were collected, washed and air-dried, immersed in a liquid medicine, taken out after 5 seconds, naturally air-dryed, and then transferred into a clean vessel. About 35 2nd -instar larvae of Bombyx mori L. were put into the vessel and fed at a constant temperature of 25° C. Each concentration was repeated 3 times, and an aqueous solution containing 0.05% of Tween-80 was used as a control group. After being treated for 24 hours, a number of dead Bombyx mori L. was counted, and a mortality (%) was calculated according to a formula that mortality (%)=(number of live larvae in the control group −number of treated live larvae)/number of live larvae in the control group * 100%.

[1] = 24 h, read-out: Solenopsis invicta Mortality (%) 100 ppm 24 h, 100 ppm, 24 h
[2] = 72 h, read-out: Solenopsis invicta Mortality (%) 100 ppm 72 h, 100 ppm, 72 h

| Compound | Toxicity determination Apis cernan Mortality (%) (Apis cernan) | mortality at 500 ppm (Spodoptera exigua) | mortality at 500 ppm (Plutella xylostella) | mortality at 100 ppm (Solenopsis invicta; [1]) | mortality at 100 ppm (Solenopsis invicta; [2]) | mortality at 500 ppm (Aphis craccivora) | Toxicity determination Bombyx mori L. Mortality (%) (Bombyx mori L.) | Spodoptera exigua Mortality (%) (Spodoptera exigua) | Plutella xylostella Mortality (%) (Plutella xylostella) | Solenopsis invicta Mortality (%) 24 h (Solenopsis invicta; 24 h) | Solenopsis invicta Mortality (%) 72 h (Solenopsis invicta; 72 h) | Aphis craccivora Mortality (%) (Aphis craccivora) |
| --- | --- | --- | --- | --- | --- | --- | --- | --- | --- | --- | --- | --- |
| CC1(C)Nc2cc(C#N)nn2-c2ccccc21 [Compound A1, 5,5-dimethyl-4,5-dihydropyrazole[1,5-α]quinazoline-2-cyano] | 12% | 90% | 95% | 20% | 87% | 100% | 9% | – | – | – | – | – |
| CC(=O)N1c2c(Br)c(C#N)nn2-c2ccccc2C1(C)C [Compound A4] | 8% | 100% | 86% | 20% | 87% | 100% | 10% | – | – | – | – | – |
| CC(=O)c1nn2c(c1Br)NC(C)(C)c1ccccc1-2 [Compound A5] | 9% | 100% | 100% | 34% | 100% | 100% | 2% | – | – | – | – | – |
| CC1(C)Nc2c(Br)c(C(=O)N3CCCCC3)nn2-c2ccccc21 [Compound A7] | 6% | 100% | 100% | 20% | 100% | 100% | 6% | – | – | – | – | – |
| CC1(C)Nc2c([S+]([O-])C(F)(F)F)c(C#N)nn2-c2ccccc21 (centres unmarked) [Compound A8] | 10% | 90% | 100% | 26% | 93% | 100% | 12% | – | – | – | – | – |
| CNC(=O)C1Nc2c([S+]([O-])C(F)(F)F)c(C(F)(F)F)nn2-c2c(Cl)cc(C(F)(F)F)cc21 (stereo not drawn) [d-109] | – | – | – | – | – | – | – | 85% | 96% | 28% | 85% | 99% |
| CC(=O)C1Nc2c([S+]([O-])C(F)(F)F)c(C(F)(F)F)nn2-c2c(Cl)cc(C(F)(F)F)cc21 (stereo not drawn) [d-112] | – | – | – | – | – | – | – | 80% | 96% | 36% | 99% | 100% |
| [O-][S+](c1c(C(F)(F)F)nn2c1NC(Br)c1cc(C(F)(F)F)cc(Cl)c1-2)C(F)(F)F (stereo not drawn) [d-114] | – | – | – | – | – | – | – | 87% | 100% | 24% | 90% | 100% |
| CC=CC1Nc2c([S+]([O-])C(F)(F)F)c(C(F)(F)F)nn2-c2c(Cl)cc(C(F)(F)F)cc21 (stereo not drawn) [d-119] | – | – | – | – | – | – | – | 90% | 89% | 26% | 83% | 92% |
| COC(=O)C(C)C1Nc2c(OC(F)(F)F)c(C#N)nn2-c2c(Cl)cc(C(F)(F)F)cc21 (stereo not drawn) [d-122] | – | – | – | – | – | – | – | 84% | 91% | 24% | 95% | 90% |
| N#Cc1nn2c(c1OC(F)(F)F)NC(C(=O)C(F)(F)F)c1cc(C(F)(F)F)cc(Cl)c1-2 (stereo not drawn) [d-127] | – | – | – | – | – | – | – | 100% | 96% | 20% | 97% | 100% |
| N#CCC1Nc2c(OC(F)(F)F)c(C#N)nn2-c2c(Cl)cc(C(F)(F)F)cc21 (stereo not drawn) [d-129] | – | – | – | – | – | – | – | 100% | 95% | 24% | 100% | 100% |
| CNC(=O)CC1Nc2c(OC(F)(F)F)c(C#N)nn2-c2c(Cl)cc(C(F)(F)F)cc21 (stereo not drawn) [d-133] | – | – | – | – | – | – | – | 86% | 70% | 21% | 95% | 100% |
| CC(C)C1Nc2c(OC(F)(F)F)c(C#N)nn2-c2c(Cl)cc(C(F)(F)F)cc21 (stereo not drawn) [d-141] | – | – | – | – | – | – | – | 95% | 90% | 11% | 91% | 100% |
| COC(=O)CC1(C(=O)OC)Nc2c([S+]([O-])C(F)(F)F)c(C#N)nn2-c2c(C(F)(F)F)ccc(Cl)c21 (centres unmarked) [e-1] | – | – | – | – | – | – | – | 100% | 100% | 33% | 100% | 100% |
| CCOC(=O)CC1(C(=O)OC)Nc2c([S+]([O-])C(F)(F)F)c(C#N)nn2-c2c(C(F)(F)F)ccc(Cl)c21 (centres unmarked) [e-2] | – | – | – | – | – | – | – | 100% | 100% | 25% | 100% | 100% |
| COC(=O)C1(CC(=O)OCC(F)(F)F)Nc2c([S+]([O-])C(F)(F)F)c(C#N)nn2-c2c(C(F)(F)F)ccc(Cl)c21 (centres unmarked) [e-3] | – | – | – | – | – | – | – | 95% | 100% | 20% | 98% | 100% |
| COC(=O)C1(CC(=O)OCC(F)F)Nc2c([S+]([O-])C(F)(F)F)c(C#N)nn2-c2c(C(F)(F)F)ccc(Cl)c21 (centres unmarked) [e-4] | – | – | – | – | – | – | – | 100% | 100% | 32% | 100% | 100% |
| CCOC(=O)CC1(C(=O)OCC)Nc2c([S+]([O-])C(F)(F)F)c(C#N)nn2-c2c(C(F)(F)F)ccc(Cl)c21 (centres unmarked) [e-5] | – | – | – | – | – | – | – | 100% | 100% | 34% | 100% | 100% |
| CCOC(=O)C1(CC(=O)OC)Nc2c([S+]([O-])C(F)(F)F)c(C#N)nn2-c2c(C(F)(F)F)ccc(Cl)c21 (centres unmarked) [e-6] | – | – | – | – | – | – | – | 100% | 100% | 34% | 100% | 100% |
| COC(=O)CC1(C(=O)OC)Nc2c([S+]([O-])C(F)(F)F)c(C#N)nn2-c2ccc(C(F)(F)F)c(Cl)c21 (centres unmarked) [e-7] | – | – | – | – | – | – | – | 100% | 100% | 29% | 99% | 100% |
| COC(=O)CC1(C(=O)OC)Nc2c([S+]([O-])C(F)(F)F)c(C#N)nn2-c2c1ccc(Cl)c2C(F)(F)F (centres unmarked) [e-13] | – | – | – | – | – | – | – | 100% | 100% | 20% | 100% | 100% |
| COC(=O)CC1(C(=O)OC)Nc2c([S+]([O-])C(F)(F)F)c(C#N)nn2-c2cc(C(F)(F)F)c(Cl)cc21 (centres unmarked) [e-19] | – | – | – | – | – | – | – | 100% | 100% | 31% | 90% | 100% |
